Our source for the IC50 values is patent publication US8674118B2, “Compounds and methods for the treatment or prevention of flavivirus infections” (priority 2005, dated 2014).

For orientation: IC50 means the midpoint of a concentration-inhibition curve.

This test deals with HCV RNA replication (replicon cell lines Huh-7, 5.2 and ET). The test is described as follows: Cell-Based Luciferase Reporter HCV RNA Replication Assay. Conditions: Huh-7, 5.2 or ET replicon cells, luciferase counts after 4 days incubation, read-out: IC50. For orientation: Reporter assays use an easily measured gene product as a stand-in for the process of interest.

Counter-ions that a name gives are not always drawn. Like-named read-outs stand apart in the source and are kept apart here.

For the molecule `C[C@H]1CC[C@H](C(=O)N(c2cc(C3=CCCCC3)sc2C(=O)O)C2CCSCC2)CC1` [Compound 42, 5-cyclohex-1-enyl-3-[(trans-4-methyl-cyclohexanecarbonyl)-(tetrahydrothiopyran-4-yl)-amino]-thiophene-2-carboxylic acid], the IC50 (Hepatitis C virus, Huh-7, 96 h) was under 5 µM. On to `CC1CCC(C(=O)N(c2cc(C3=CCCCC3)sc2C(=O)O)C2CCC(C(C)(C)C)CC2)CC1` (stereo not drawn) [Compound 44, 3-[(4-trans-tert-butyl-cyclohexyl)-(4-trans-methyl-cyclohexanecarbonyl)-amino]-5-cyclohex-1-enyl-thiophene-2-carboxylic acid], for which, where the note is “Hepatitis C virus, Huh-7, 96 h”, the IC50 was in the range of 5 to 25 µM. Turning to `CC1CCC(C(=O)N(c2cc(C3=CCCCC3)sc2C(=O)O)C2CCC(C(C)(C)C)CC2)CC1` (stereo not drawn) [Compound 45, 3-[(4-cis-tert-butyl-cyclohexyl)-(4-trans-methyl-cyclohexanecarbonyl)-amino]-5-cyclohex-1-enyl-thiophene-2-carboxylic acid], the IC50 is under 5 µM. For the molecule `CC1CCC(C(=O)N(c2cc(C3=CCCCCC3)sc2C(=O)O)C2CCCCC2)CC1` (stereo not drawn) [Compound 46, 5-cyclohept-1-enyl-3-[cyclohexyl-(4-trans-methyl-cyclohexanecarbonyl)-amino]-thiophene-2-carboxylic acid], where the note is “Hepatitis C virus, Huh-7, 96 h”, the IC50 was under 5 µM. Still for that read-out and setting: in the case of `CC1CC=C(c2cc(N(C(=O)C3CCC(C)CC3)C3CCCCC3)c(C(=O)O)s2)CC1` (stereo not drawn) [Compound 47, RS-3-[cyclohexyl-(4-trans-methyl-cyclohexanecarbonyl)-amino]-5-(4-methyl-cyclohex-1-enyl)-thiophene-2-carboxylic acid] it was under 5 µM. As for `C[C@H]1CC[C@H](C(=O)N(c2cc(C3=CCCCC3)sc2C(=O)O)[C@H]2CC[C@H](n3cncn3)CC2)CC1` [Compound 48, 5-cyclohex-1-enyl-3-[(trans-4-methylcyclohexanecarbonyl)-(trans-4-[1,2,4]triazol-1-yl-cyclohexyl)-amino]-thiophene-2-carboxylic acid; hydrochloride], the IC50 (Hepatitis C virus, Huh-7, 96 h) is under 5 µM.

With `C[C@H]1CC[C@H](C(=O)N(c2cc(C3=CCCCC3)sc2C(=O)O)[C@H]2CC[C@@H](C#N)CC2)CC1` [Compound 49, 3-[(cis-4-cyanocyclohexyl)-(trans-4-methylcyclohexanecarbonyl)-amino]-5-cyclohex-1-enyl-thiophene-2-carboxylic acid], the IC50 (Hepatitis C virus, Huh-7, 96 h) is under 5 µM.

On to `C[C@H]1CC[C@H](C(=O)N(c2cc(C3=CCCCC3)sc2C(=O)O)[C@H]2CC[C@H](C#N)CC2)CC1` [Compound 50, 3-[(trans-4-cyanocyclohexyl)-(trans-4-methyl-cyclohexanecarbonyl)-amino]-5-cyclohex-1-enyl-thiophene-2-carboxylic acid], for which the IC50 (Hepatitis C virus, Huh-7, 96 h) was under 5 µM. The same measure, in the same setting: in the case of `C[C@H]1CC[C@H](C(=O)N(c2cc(C3=CCCCC3)sc2C(=O)O)C2CC2)CC1` [Compound 51, 5-cyclohex-1-enyl-3-[cyclopropyl-(trans-4-methyl-cyclohexanecarbonyl)-amino]-thiophene-2-carboxylic acid] it was 5 to 25 µM; in that of `C[C@H]1CC[C@H](C(=O)N(c2cc(C3=CCCCC3)sc2C(=O)O)[C@H]2CC[C@H](C)CC2)CC1` [Compound 52, 5-cyclohex-1-enyl-3-[(trans-4-methyl-cyclohexanecarbonyl)-(trans-4-methyl-cyclohexyl)-amino]-thiophene-2-carboxylic acid], under 5 µM; in that of `C[C@H]1CC[C@H](C(=O)N(c2cc(C3=CCCCC3)sc2C(=O)O)[C@H]2CC[C@@H](C)CC2)CC1` [Compound 53, 5-cyclohex-1-enyl-3-[(trans-4-methyl-cyclohexanecarbonyl)-(cis-4-methyl-cyclohexyl)-amino]-thiophene-2-carboxylic acid], under 5 µM. For the molecule `C[C@H]1CC[C@H](C(=O)N(c2cc(C3=CCCCC3)sc2C(=O)O)[C@H]2CC[C@@H](F)CC2)CC1` [Compound 57, 5-cyclohex-1-enyl-3-[(cis-4-fluoro-cyclohexyl)-(trans-4-methyl-cyclohexanecarbonyl)-amino]-thiophene-2-carboxylic acid], the IC50 (Hepatitis C virus, Huh-7, 96 h) was under 5 µM. As for `CC1=CCCCC1c1cc(N(C(=O)C2CCC(C)CC2)C2CCC(=O)CC2)c(C(=O)O)s1` (stereo not drawn) [Compound 58, RS-3-[(4-trans-methyl-cyclohexanecarbonyl)-(4-oxo-cyclohexyl)-amino]-5-(2-methyl-cyclohex-2-enyl)-thiophene-2-carboxylic acid], the IC50 (Hepatitis C virus, Huh-7, 96 h) lay in the range of 5 to 25 µM. For `CC1CCC(C(=O)N(c2cc(C3=CCCC(C)C3)sc2C(=O)O)C2CCC(O)CC2)CC1` (stereo not drawn) [Compound 61, RS-3-[(4-trans-hydroxy-cyclohexyl)-(4-trans-methyl-cyclohexanecarbonyl)-amino]-5-(5-methyl-cyclohex-1-enyl)-thiophene-2-carboxylic acid], the half-inhibitory concentration (IC50) was under 5 µM. `C[C@H]1CC[C@H](C(=O)N(c2cc(C3=CCCCC3)sc2C(=O)O)[C@H]2CC[C@H](c3nnn[nH]3)CC2)CC1` [Compound 62, 5-cyclohex-1-enyl-3-{(trans-4-methyl-cyclohexanecarbonyl)-[trans-4-(1h-tetrazol-5-yl)-cyclohexyl]-amino}-thiophene-2-carboxylic acid]: the IC50 (Hepatitis C virus, Huh-7, 96 h) was under 5 µM.

For the molecule `CC1CCC(C(=O)N(c2cc(C3=CCCCC3)sc2C(=O)O)C2CC[S+]([O-])CC2)CC1` (stereo not drawn) [Compound 63, 5-cyclohex-1-enyl-3-[(trans-4-methyl-cyclohexanecarbonyl)-(1-oxo-hexahydro-1-thiopyran-4-yl)-amino]-thiophene-2-carboxylic acid], the half-inhibitory concentration (IC50) (Hepatitis C virus, Huh-7, 96 h) was under 5 µM. Regarding `CC1(C)CCC(c2cc(N(C(=O)[C@H]3CC[C@H](C)CC3)[C@H]3CC[C@H](O)CC3)c(C(=O)O)s2)CC1` [Compound 64, 5-(4,4-dimethyl-cyclohexyl)-3-[(trans-4-hydroxy-cyclohexyl)-(trans-4-methyl-cyclohexanecarbonyl)-amino]-thiophene-2-carboxylic acid], the IC50 (Hepatitis C virus, Huh-7, 96 h) was under 5 µM. On to `CC1CCC(C(=O)N(c2cc(C3=CCCCC3)sc2C(=O)O)C2CCc3ccccc3C2)CC1` (stereo not drawn) [Compound 66, RS-5-cyclohex-1-enyl-3-[(4-trans-methyl-cyclohexanecarbonyl)-(1,2,3,4-tetrahydro-naphthalen-2-yl)-amino]-thiophene-2-carboxylic acid], for which, for the setting “Hepatitis C virus, Huh-7, 96 h”, the IC50 is under 5 µM.

In the case of `COc1ccc2c(c1)CC(N(C(=O)C1CCC(C)CC1)c1cc(C3=CCCCC3)sc1C(=O)O)CC2` (stereo not drawn) [Compound 67, RS-5-cyclohex-1-enyl-3-[(7-methoxy-1,2,3,4-tetrahydro-naphthalen-2-yl)-(4-trans-methyl-cyclohexanecarbonyl)-amino]-thiophene-2-carboxylic acid], under “Hepatitis C virus, Huh-7, 96 h”, the IC50 is under 5 µM. Turning to `CNC(=O)C1CCC(N(C(=O)C2CCC(C)CC2)c2cc(C3=CCCCC3)sc2C(=O)O)CC1C(=O)O` (stereo not drawn) [Compound 68, 3-[(3-trans-carboxy-4-trans-methylcarbamoyl-cyclohexyl)-(4-trans-methyl-cyclohexanecarbonyl)-amino]-5-cyclohex-1-enyl-thiophene-2-carboxylic acid], under “Hepatitis C virus, Huh-7, 96 h”, the IC50 is under 5 µM. Regarding `C[C@H]1CC[C@H](C(=O)N(c2cc(C3=CCCCC3)sc2C(=O)O)[C@H]2CC[C@H](F)CC2)CC1` [Compound 70, 5-cyclohex-1-enyl-3-[(trans-4-fluoro-cyclohexyl)-(trans-4-methyl-cyclohexanecarbonyl)-amino]-thiophene-2-carboxylic acid], the concentration for half-maximal inhibition (IC50) (Hepatitis C virus, Huh-7, 96 h) is under 5 µM. Regarding `CC1CCC(C(=O)N(c2cc(C3=CCCCC3)sc2C(=O)O)C2CCC3C(=O)N(C)C(=O)C3C2)CC1` (stereo not drawn) [Compound 72, RS-5-cyclohex-1-enyl-3-[(trans-methyl-cyclohexanecarbonyl)-(2-methyl-1,3-dioxo-octahydro-isoindol-5-yl)-amino]-thiophene-2-carboxylic acid], the 50% inhibitory concentration (IC50) (Hepatitis C virus, Huh-7, 96 h) is under 5 µM. On to `CC1CCC(C(=O)N(c2cc(C3=CCCCC3)sc2C(=O)O)C2CCC3(CC2)CN(C)C(=O)N3C)CC1` (stereo not drawn) [Compound 73, 5-cyclohex-1-enyl-3-[cis(1,3-dimethyl-2-oxo-1,3-diaza-spiro[4.5]dec-8-yl)-(trans-4-methyl-cyclohexanecarbonyl)-amino]-thiophene-2-carboxylic acid], for which the IC50 (Hepatitis C virus, Huh-7, 96 h) is under 5 µM.

On to `CC1CCC(C(=O)N(c2cc(C3=CCCCC3)sc2C(=O)O)C2CCC3(CC2)CN(C)C(=O)N3C)CC1` (stereo not drawn) [Compound 74, 5-cyclohex-1-enyl-3-[trans-(1,3-dimethyl-2-oxo-1,3-diaza-spiro[4.5]dec-8-yl)-(trans-4-methyl-cyclohexanecarbonyl)-amino]-thiophene-2-carboxylic acid], for which the half-inhibitory concentration (IC50) is under 5 µM.

In the case of `C[C@H]1CC[C@H](C(=O)N(c2cc([C@H]3CC[C@H](C)CC3)sc2C(=O)O)[C@H]2CC[C@H](O)CC2)CC1` [Compound 77, 3-[(trans-4-hydroxy-cyclohexyl)-(trans-4-methyl-cyclohexanecarbonyl)-amino]-5-(trans-4-methyl-cyclohexyl)-thiophene-2-carboxylic acid], the half-inhibitory concentration (IC50) (Hepatitis C virus, Huh-7, 96 h) was under 5 µM. Take `C[C@H]1CC[C@H](C(=O)N(c2cc([C@H]3CC[C@@H](C)CC3)sc2C(=O)O)[C@H]2CC[C@H](O)CC2)CC1` [Compound 78, 3-[(trans-4-hydroxy-cyclohexyl)-(trans-4-methyl-cyclohexanecarbonyl)-amino]-5-(cis-4-methyl-cyclohexyl)-thiophene-2-carboxylic acid]: the half-inhibitory concentration (IC50) (Hepatitis C virus, Huh-7, 96 h) is under 5 µM. Still for that read-out and setting: in the case of `CC1CCC(C(=O)N(c2cc(C3=CCCCC3)sc2C(=O)O)C2CCC3(CC2)CNC(=O)C3)CC1` (stereo not drawn) [Compound 80, 5-cyclohex-1-enyl-3-[(trans-4-methyl-cyclohexanecarbonyl)-cis-(3-oxo-2-aza-spiro[4.5]dec-8-yl)-amino]-thiophene-2-carboxylic acid] it was under 5 µM.

For `CC1CCC(C(=O)N(c2cc(C3=CCCCC3)sc2C(=O)O)C2CCC3(CC2)CNC(=O)C3)CC1` (stereo not drawn) [Compound 81, 5-cyclohex-1-enyl-3-[(trans-4-methyl-cyclohexanecarbonyl)-trans-(3-oxo-2-aza-spiro[4.5]dec-8-yl)-amino]-thiophene-2-carboxylic acid], the IC50 is under 5 µM.
